Laboratory results as given in patent US9708314B2, “Heterocyclic amide compound” (NISSAN CHEMICAL INDUSTRIES, LTD., priority 2013, dated 2017).

How the values were obtained:
Type in all cases: in vivo
Cyperus difformis = experiment: Test Example 3: herbicidal effect by application to foliage (Wagner pot, water depth 0.1-0.5 cm); conditions: Nineteenth Table; application to foliage; application herbicide amount 320 g/ha
Procedure, shortened: (§1)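 Visual 0–5 rating of herbicidal ratio, taken 3 weeks after foliar spray of a diluted emulsion formulation at rates expressed as g/ha. Plants had been sown in alluvial soil under 0.1–0.5 cm water and grown 14 days at 25–30 °C under glass before application.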

[1] = test system: Echinochloa crus-galli var. crus-galli; experiment: as above; conditions: Nineteenth Table; application to foliage; application herbicide amount 320 g/ha
Procedure, shortened: as §1

Leptochloa chinensis = experiment: as above; conditions: Nineteenth Table; application to foliage; application herbicide amount 320 g/ha
Procedure, shortened: as §1

Chenopodium album = experiment: Test Example 4: herbicidal effect by application to foliage (diluvial soil, plastic box); conditions: application to foliage; for herbicidal effect, O (Chenopodium album): 320 g/ha
Procedure, shortened: (§2)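 Greenhouse plants (25° C. to 30° C., 14 d, diluvial soil) receive a foliar spray of water-diluted emulsifiable formulation at defined g/ha. Grading after 3 weeks uses a six-step herbicidal-ratio scale, with 4 covering 70% to <90% and 1 covering 5% to <20%.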

Apera spica-venti. = experiment: as above; conditions: application to foliage; for herbicidal effect, L (Apera spica-venti.): 320 g/ha
Procedure, shortened: as §2

Galium spurium = experiment: as above; conditions: application to foliage; for herbicidal effect, Q (Galium spurium): 320 g/ha
Procedure, shortened: as §2

Alopecurus myosuroides = experiment: as above; conditions: application to foliage; for herbicidal effect, J (Alopecurus myosuroides): 320 g/ha
Procedure, shortened: as §2

Abutilon theophrasti = experiment: as above; conditions: application to foliage; for herbicidal effect, M (Abutilon theophrasti): 320 g/ha
Procedure, shortened: as §2

Digitaria ciliaris = experiment: as above; conditions: application to foliage; for herbicidal effect, F (Digitaria ciliaris): 320 g/ha
Procedure, shortened: as §2

Setaria viridis = experiment: as above; conditions: application to foliage; for herbicidal effect, G (Setaria viridis): 320 g/ha
Procedure, shortened: as §2

Avena fatua = experiment: as above; conditions: application to foliage; for herbicidal effect, I (Avena fatua): 320 g/ha
Procedure, shortened: as §2

Lolium multiflorum Lam. = experiment: as above; conditions: application to foliage; for herbicidal effect, K (Lolium multiflorum Lam.): 320 g/ha
Procedure, shortened: as §2

[2] = test system: Echinochloa crus-galli var. crus-galli; experiment: as above; conditions: application to foliage; for herbicidal effect, H (Echinochloa crus-galli var. crus-galli): 320 g/ha
Procedure, shortened: as §2

[3] = test system: directly sowed Oryza sativa; experiment: Test Example 4: effect on crop by application to foliage (diluvial soil, plastic box); conditions: application to foliage; for effect on crop, d (directly sowed Oryza sativa): 320 g/ha
Procedure, shortened: as §2

Zea mays = experiment: as above; conditions: application to foliage; for effect on crop, b (Zea mays): 320 g/ha
Procedure, shortened: as §2

Glycine max = experiment: as above; conditions: application to foliage; for effect on crop, c (Glycine max): 320 g/ha
Procedure, shortened: as §2

Triticum aestivum = experiment: as above; conditions: application to foliage; for effect on crop, e (Triticum aestivum): 320 g/ha
Procedure, shortened: as §2

Brassica campestris L. = experiment: as above; conditions: application to foliage; for effect on crop, g (Brassica campestris L.): 320 g/ha
Procedure, shortened: as §2

[4] = test system: Beta vulgaris ssp. vulgaris; experiment: as above; conditions: application to foliage; for effect on crop, f (Beta vulgaris ssp. vulgaris): 320 g/ha
Procedure, shortened: as §2

[5] = application herbicide amount 320 g/ha

Row | SMILES | E (herbicidal effect grade) (Cyperus difformis) | H (herbicidal effect grade) [1] | D (herbicidal effect grade) (Leptochloa chinensis) | herbicidal effect, O (Chenopodium album) (Chenopodium album) | herbicidal effect, L (Apera spica-venti.) (Apera spica-venti.) | herbicidal effect, Q (Galium spurium) (Galium spurium) | herbicidal effect, J (Alopecurus myosuroides) (Alopecurus myosuroides) | herbicidal effect, M (Abutilon theophrasti) (Abutilon theophrasti) | herbicidal effect, F (Digitaria ciliaris) (Digitaria ciliaris) | herbicidal effect, G (Setaria viridis) (Setaria viridis) | herbicidal effect, I (Avena fatua) (Avena fatua) | herbicidal effect, K (Lolium multiflorum Lam.) (Lolium multiflorum Lam.) | herbicidal effect, H (Echinochloa crus-galli var. crus-galli) [2] | effect on crop, d (directly sowed Oryza sativa) [3] | effect on crop, b (Zea mays) (Zea mays) | effect on crop, c (Glycine max) (Glycine max) | effect on crop, e (Triticum aestivum) (Triticum aestivum) | effect on crop, g (Brassica campestris L.) (Brassica campestris L.) | effect on crop, f (Beta vulgaris ssp. vulgaris) [4] | also measured
1 | CN(CCC#N)c1nnc2c(C(=O)Nc3nnco3)ccc(C(F)(F)F)n12 [1-164] | 4 (Herbicidal ratio of 70% or more and less than 90%) | 5 (Herbicidal ratio of 90% or more (almost completely withered)) | 5 (Herbicidal ratio of 90% or more (almost completely withered)) |  |  |  |  |  |  |  |  |  |  |  |  |  |  |  |  | O: herbicidal effect on Chenopodium album (Chenopodium album; [5]): 5 (Herbicidal ratio of 90% or more (almost completely withered)); L: herbicidal effect on Apera spica-venti. (Apera spica-venti.; [5]): 3 (Herbicidal ratio of 40% or more and less than 70%); Q: herbicidal effect on Galium spurium (Galium spurium; [5]): 4 (Herbicidal ratio of 70% or more and less than 90%); J: herbicidal effect on Alopecurus myosuroides (Alopecurus myosuroides; [5]): 1 (Herbicidal ratio of 5% or more and less than 20%); M: herbicidal effect on Abutilon theophrasti (Abutilon theophrasti; [5]): 4 (Herbicidal ratio of 70% or more and less than 90%); F: herbicidal effect on Digitaria ciliaris (Digitaria ciliaris; [5]): 5 (Herbicidal ratio of 90% or more (almost completely withered)); G: herbicidal effect on Setaria viridis (Setaria viridis; [5]): 5 (Herbicidal ratio of 90% or more (almost completely withered)); I: herbicidal effect on Avena fatua (Avena fatua; [5]): 3 (Herbicidal ratio of 40% or more and less than 70%); K: herbicidal effect on Lolium multiflorum Lam. (Lolium multiflorum Lam.; [5]): 1 (Herbicidal ratio of 5% or more and less than 20%); H: herbicidal effect on Echinochloa crus-galli var. crus-galli [2, 5]: 5 (Herbicidal ratio of 90% or more (almost completely withered)); b: effect on crop, directly sowed Oryza sativa [3, 5]: 4 (Herbicidal ratio of 70% or more and less than 90%); c: effect on crop, Zea mays (Zea mays; [5]): 0 (Herbicidal ratio of 5% or less (almost no effect)); d: effect on crop, Glycine max (Glycine max; [5]): 5 (Herbicidal ratio of 90% or more (almost completely withered)); e: effect on crop, Triticum aestivum (Triticum aestivum; [5]): 3 (Herbicidal ratio of 40% or more and less than 70%); g: effect on crop, Brassica campestris L. (Brassica campestris L.; [5]): 4 (Herbicidal ratio of 70% or more and less than 90%); f: effect on crop, Beta vulgaris ssp. vulgaris [4, 5]: 5 (Herbicidal ratio of 90% or more (almost completely withered))
2 | Cn1nnnc1NC(=O)c1ccc(C(F)(F)F)n2c(SC3CCCC3)nnc12 [2-096] | 5 (Herbicidal ratio of 90% or more (almost completely withered)) | 0 (Herbicidal ratio of 5% or less (almost no effect)) | 0 (Herbicidal ratio of 5% or less (almost no effect)) | 5 (Herbicidal ratio of 90% or more (almost completely withered)) | 0 (Herbicidal ratio of 5% or less (almost no effect)) | 3 (Herbicidal ratio of 40% or more and less than 70%) | 0 (Herbicidal ratio of 5% or less (almost no effect)) | 5 (Herbicidal ratio of 90% or more (almost completely withered)) | 5 (Herbicidal ratio of 90% or more (almost completely withered)) | 4 (Herbicidal ratio of 70% or more and less than 90%) | 1 (Herbicidal ratio of 5% or more and less than 20%) | 0 (Herbicidal ratio of 5% or less (almost no effect)) | 5 (Herbicidal ratio of 90% or more (almost completely withered)) | 3 (Herbicidal ratio of 40% or more and less than 70%) | 0 (Herbicidal ratio of 5% or less (almost no effect)) | 0 (Herbicidal ratio of 5% or less (almost no effect)) | 0 (Herbicidal ratio of 5% or less (almost no effect)) | 0 (Herbicidal ratio of 5% or less (almost no effect)) | 5 (Herbicidal ratio of 90% or more (almost completely withered)) | 
3 | Cn1nnnc1NC(=O)c1ccc(C(F)(F)F)n2c(SCc3ccc(Cl)nc3)nnc12 [2-097] | 4 (Herbicidal ratio of 70% or more and less than 90%) | 2 (Herbicidal ratio of 20% or more and less than 40%) | 3 (Herbicidal ratio of 40% or more and less than 70%) | 5 (Herbicidal ratio of 90% or more (almost completely withered)) | 2 (Herbicidal ratio of 20% or more and less than 40%) | 3 (Herbicidal ratio of 40% or more and less than 70%) | 1 (Herbicidal ratio of 5% or more and less than 20%) | 3 (Herbicidal ratio of 40% or more and less than 70%) | 4 (Herbicidal ratio of 70% or more and less than 90%) | 3 (Herbicidal ratio of 40% or more and less than 70%) | 2 (Herbicidal ratio of 20% or more and less than 40%) | 1 (Herbicidal ratio of 5% or more and less than 20%) | 5 (Herbicidal ratio of 90% or more (almost completely withered)) | 3 (Herbicidal ratio of 40% or more and less than 70%) | 0 (Herbicidal ratio of 5% or less (almost no effect)) | 0 (Herbicidal ratio of 5% or less (almost no effect)) | 0 (Herbicidal ratio of 5% or less (almost no effect)) | 1 (Herbicidal ratio of 5% or more and less than 20%) | 4 (Herbicidal ratio of 70% or more and less than 90%) | 
